{"source": "patent US20220274947A1", "about": "“NOVEL HETEROARYL-TRIAZOLE COMPOUNDS AS PESTICIDES” (Bayer Aktiengesellschaft, priority 2019, published 2022)", "format_in_all_cases": "in vivo", "key": {"[1]": {"tested_on": "Blattella germanica strain PAULINIA", "assay": "Blattella germanica test (BLTTGE surface treatment & contact assay)", "settings": "exposure 30 minutes, 24 hours after contact, read-out: efficacy (mortality); for mortality at 20 mg/m2: surface concentration 20 mg/m^2, glazed tile; for mortality at 4 mg/m2: surface concentration 4 mg/m^2, glazed tile", "method": "Blattella germanica Test (BLTTGE Surface Treatment & Contact Assay) Solvent: Aceton+2000 ppm rapeseed oil methyl ester (RME)\nIn order to produce a sufficient, active ingredient containing solution it is necessary to solve the test compound in the solvent-mix (acetone at 2 mg/ml/RME 2000 ppm). This solution is pipetted onto a glazed tile and after evaporation of the acetone, adult animals of the species Blattella germanica strain […] are placed onto the dried surface. The exposure time is 30 minutes. Mortality in percent (%) is determined 24 hours after contact of the insects to the treated surface. 100% mortality means that all tested insects are dead, whereas 0% means that no insect died."}, "Tetranychus urticae": {"tested_on": "Tetranychus urticae", "assay": "Tetranychus urticae spray test, OP-resistant", "settings": "foliar, 144 h, application rate 100 g/ha, French bean leaf disks, after 6 days", "method": "Tetranychus urticae—Spray Test OP-Resistant Solvent: 78.0 parts by weight acetone • 1.5 parts by weight dimethylformamide Emulsifier: alkylarylpolyglycol ether\n(§1) To produce a suitable preparation of active compound, 1 part by weight of active compound is mixed with the stated amount of solvents and is diluted with water, containing an emulsifier concentration of 1000 ppm, to the desired concentration. Further test concentrations are prepared by dilution with emulsifier containing water.\nFrench bean (Phaseolus vulgaris) leaf disks infected with all instars of the two spotted spidermite (Tetranychus urticae), are sprayed with a preparation of the active ingredient of the desired concentration.\nAfter 6 days mortality in % is determined. 100% means all spider mites have been killed and 0% means none of the spider mites have been killed."}, "Nilaparvata lugens": {"tested_on": "Nilaparvata lugens", "assay": "Nilaparvata lugens spray test", "settings": "96 h, rice plants, after 4 days; for mortality at 100 g/ha: application rate 100 g/ha; for mortality at 500 g/ha: application rate 500 g/ha", "method": "Nilaparvata lugens—Spray Test Solvent: 78.0 parts by weight of acetone • • 1.5 parts by weight of dimethylformamide Emulsifier: alkylarylpolyglycol ether\nas §1\nRice plants (Oryza sativa) are sprayed with a preparation of the active ingredient of the desired concentration and the plants are infested with the brown planthopper (Nilaparvata lugens).\nAfter 4 days mortality in % is determined. 100% means all planthoppers have been killed and 0% means none of the planthoppers have been killed."}}}
{"smiles": "C[C@H](NC(=O)c1cc(C(F)F)cc(C(F)F)c1)c1ncnn1-c1ccc(C#N)cn1", "note": "[II-101]", "values": [{"measurement": "mortality at 20 mg/m2", "setting": "[1]", "value": "80 to 100", "unit": "%"}]}
{"smiles": "Cc1nc([C@H](C)NC(=O)c2cc(C(F)(F)F)cc(C(F)(F)F)c2)n(-c2ccc(C(=O)N(C)CC#N)cn2)n1", "note": "[II-99]", "values": [{"measurement": "mortality at 100 g/ha", "setting": "Tetranychus urticae", "value": 90, "unit": "%"}, {"measurement": "mortality at 100 g/ha", "setting": "Nilaparvata lugens", "value": 90, "unit": "%"}]}
{"smiles": "C[C@H](NC(=O)c1cc(Cl)cc(C(F)(F)F)c1)c1ncnn1-c1cc(-n2cncn2)ccn1", "note": "[II-43]", "values": [{"measurement": "mortality at 500 g/ha", "setting": "Nilaparvata lugens", "value": 90, "unit": "%"}]}
{"smiles": "C[C@H](NC(=O)c1cc(C(F)(F)F)cc(C(F)(F)F)c1)c1ncnn1-c1ccc(C(=O)N(C)C2CC2)cn1", "note": "[II-38, 6-(5-{(1S)-1-[3,5-bis(trifluoromethyl)benzamido]ethyl}-1H-1,2,4-triazol-1-yl)-N-cyclopropyl-N-methylnicotinamide]", "values": [{"measurement": "mortality at 100 g/ha", "setting": "Tetranychus urticae", "value": 90, "unit": "%"}]}
{"smiles": "C[C@H](NC(=O)c1ccnc(C(F)(F)F)n1)c1ncnn1-c1ccc(C#N)cn1", "note": "[II-8]", "values": [{"measurement": "mortality at 500 g/ha", "setting": "Nilaparvata lugens", "value": 100, "unit": "%"}]}
{"smiles": "C[C@H](NC(=O)c1cc(Cl)cc(C(F)F)c1)c1ncnn1-c1ccc(C#N)cn1", "note": "[II-12]", "values": [{"measurement": "mortality at 100 g/ha", "setting": "Tetranychus urticae", "value": 90, "unit": "%"}]}
{"smiles": "C[C@H](NC(=O)c1cc(OC(F)F)cc(C(F)F)c1)c1ncnn1-c1ccc(C#N)cn1", "note": "[II-116]", "values": [{"measurement": "mortality at 4 mg/m2", "setting": "[1]", "value": "80 to 100", "unit": "%"}, {"measurement": "mortality at 20 mg/m2", "setting": "[1]", "value": "80 to 100", "unit": "%"}]}
{"smiles": "C[C@H](NC(=O)c1cc(OC(F)(F)F)cc(C(F)F)c1)c1ncnn1-c1ccc(C#N)cn1", "note": "[II-111]", "values": [{"measurement": "mortality at 4 mg/m2", "setting": "[1]", "value": "80 to 100", "unit": "%"}, {"measurement": "mortality at 20 mg/m2", "setting": "[1]", "value": "80 to 100", "unit": "%"}]}
{"smiles": "C[C@H](NC(=O)c1cc(Br)cc(C(F)F)c1)c1ncnn1-c1ccc(C#N)cn1", "note": "[II-83]", "values": [{"measurement": "mortality at 20 mg/m2", "setting": "[1]", "value": "80 to 100", "unit": "%"}]}
{"smiles": "C[C@H](NC(=O)c1cc(C(F)(F)F)cc(C(F)(F)F)c1)c1ncnn1-c1ccc(C(=O)N(C)CC2CC2)cn1", "note": "[II-73]", "values": [{"measurement": "mortality at 500 g/ha", "setting": "Nilaparvata lugens", "value": 100, "unit": "%"}]}
{"smiles": "Cc1nc([C@H](C)NC(=O)c2cc(C(F)(F)F)cc(C(F)(F)F)c2)n(-c2ccc(C(=O)N(C)C3CC3)cn2)n1", "note": "[II-96]", "values": [{"measurement": "mortality at 100 g/ha", "setting": "Nilaparvata lugens", "value": 90, "unit": "%"}]}
{"smiles": "C[C@H](NC(=O)c1cc(OC(F)F)cc(OC(F)F)c1)c1ncnn1-c1ccc(C#N)cn1", "note": "[II-77]", "values": [{"measurement": "mortality at 20 mg/m2", "setting": "[1]", "value": "80 to 100", "unit": "%"}]}
